Laboratory results as given in US7375222B2, “2,4,6-Triamino-1,3,5-triazine derivative” (Astellas Pharma Inc., priority 2002, dated 2008).
Structures can show the parent of a compound that is named as a salt.

Tests used:
BEC 1 potassium channel = biological target: T1, BEC 1 potassium channel (Homo sapiens, UniProt Q9ULD8); assay: BEC 1 inhibitory activity using released amount of 86Rb ions from BEC 1-expressing cells; type: cell-based; details: 86Rb ion release; for IC50: BEC 1-stably expressing CHO (dhfr-deficient) cell, 100 mM KCl stimulation, read-out: BEC1 IC50; for Inhibition ratio: concentration of test compound is 3 μM
T1 construct: expressed in transfected cells
T1 sequence (Q9ULD8 1-1083): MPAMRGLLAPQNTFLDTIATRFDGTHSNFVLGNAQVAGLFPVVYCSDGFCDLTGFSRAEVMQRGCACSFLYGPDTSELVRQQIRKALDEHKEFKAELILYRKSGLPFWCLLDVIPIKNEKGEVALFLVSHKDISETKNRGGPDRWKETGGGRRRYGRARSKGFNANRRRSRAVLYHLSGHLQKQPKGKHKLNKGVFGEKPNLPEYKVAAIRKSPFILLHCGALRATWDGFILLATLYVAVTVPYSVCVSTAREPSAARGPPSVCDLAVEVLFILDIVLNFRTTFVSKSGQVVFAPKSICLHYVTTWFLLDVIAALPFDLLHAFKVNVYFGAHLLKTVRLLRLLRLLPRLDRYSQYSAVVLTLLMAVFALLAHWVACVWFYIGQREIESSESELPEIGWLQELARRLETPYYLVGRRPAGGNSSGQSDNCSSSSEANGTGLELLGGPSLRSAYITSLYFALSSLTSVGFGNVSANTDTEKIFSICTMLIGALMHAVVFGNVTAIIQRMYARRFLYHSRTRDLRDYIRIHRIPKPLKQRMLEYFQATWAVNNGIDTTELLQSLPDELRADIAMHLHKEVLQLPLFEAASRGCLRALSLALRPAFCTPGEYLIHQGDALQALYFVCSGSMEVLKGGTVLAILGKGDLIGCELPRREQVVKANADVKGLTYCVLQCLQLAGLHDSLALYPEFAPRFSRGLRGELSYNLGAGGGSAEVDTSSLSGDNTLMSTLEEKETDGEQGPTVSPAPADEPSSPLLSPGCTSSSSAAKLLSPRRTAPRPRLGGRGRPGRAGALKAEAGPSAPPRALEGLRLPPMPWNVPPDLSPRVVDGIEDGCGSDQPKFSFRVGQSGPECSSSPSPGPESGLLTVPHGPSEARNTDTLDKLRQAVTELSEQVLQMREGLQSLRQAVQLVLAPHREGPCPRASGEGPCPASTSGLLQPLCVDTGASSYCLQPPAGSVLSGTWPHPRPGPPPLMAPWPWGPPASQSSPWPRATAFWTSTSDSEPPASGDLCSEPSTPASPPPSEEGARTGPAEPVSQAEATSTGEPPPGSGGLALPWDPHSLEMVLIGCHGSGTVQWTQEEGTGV
Description: In general, the potassium channel can pass Rb^+ ion similar to K^+ ion, so that the channel activity can be measured using release of a radioisotope ^86Rb^+ as a marker. By incubating cells expressing the novel potassium channel protein together with ^86RbCl (e.g., 18 hr, 37° C.), ^86Rb^+ can be incorporated into the cells. The cells are washed with a low K^+ concentration physiological saline (e.g., 4.5 mM K^+) and then suspended in the same solution. When a high K^+ concentration solution (e.g., 100 mM in final concentration) is added to the cell suspension, membrane potential of the cell is depolarized and the potassium channel therefore is activated. As a result, the intracellular ^86Rb^+ is released into the extracellular part, thus radioactivity of the extracellular solution can be used as a marker of the channel activity. It is possible to screen a compound and a peptide capable of modifying activity of the BEC 1 potassium channel protein, by comparing the radioactivity released into the extracellular part when the high K^+ concentration solution is added in the presence and absence of each drug to be tested.
Method for Measuring BEC 1 Inhibitory Activity of Compounds Using Released Amount of ^86Rb ions as the Index
The channel activity of BEC 1 was measured in accordance with the method described in WO 99/37677, using amount of a radioisotope ^86Rb ion released from a BEC 1-expressing cell as the index. That is, when an ^86Rb ion-incorporated BEC 1-expressing cell was stimulated with 100 mM KCl, the radioactivity released from the cell was used as the channel activity of BEC 1. The ^86Rb ions were incorporated into a BEC 1-stably expressing cell by culturing the cell (3 hours, 37° C.) in the presence of ^86RbCl (0.5 μCi/ml), and the un-incorporated ^86Rb ions were removed by washing three times with HEPES-buffered saline (pH 7.4, 2.5 mM KCl). The cells were incubated with HEPES-buffered saline containing a compound to be tested at room temperature for 15 minutes and then further incubated with 100 mM KCl-containing HEPES-buffered saline (pH 7.4) containing the compound to be tested at room temperature for 5 minutes. The extracellular medium was recovered, and then the remaining cells were lysed with 0.1 N NaOH and recovered.
The Cerenkov radioactivity of the extracellular medium and cell lysate was respectively measured, and their total was used as the total radioactivity. The released amount of ^86Rb ions was expressed by the percentage of extracellular medium radioactivity based on the total radioactivity. The value obtained in the presence of the compound was used as a test value, and the value obtained in the absence of the compound as a control value and the value obtained when not stimulated with 100 mM KCl as a blank value. Inhibitory action of each compound was expressed by % inhibition, namely (control value−test value)×100/(control value−blank value), or by an IC50 value calculated from the % inhibition. As the test results of typical compounds are shown in the following Tables 2 and 3, it was confirmed that said compounds have the BEC 1 potassium channel inhibitory action.
In this connection, as the BEC 1-expressing cell, a BEC 1-stably expressing cell prepared in accordance with the method described in WO 99/37677 using a dihydrofolate reductase (dhfr)-deficient strain of a Chinese hamster ovary cell was used.

IC50 (BEC 1 potassium channel)	Compound	further results
	CC(CCCC(C)(C)O)Nc1nc(Nc2ccccc2)nc(Nc2ccccc2)n1 (stereo not drawn) (as salt: HCl) [Example 742]	melting point: 112 to 113 °C
1100 nM	COCCCNc1nc(Nc2ccccc2)nc(Nc2ccccc2)n1 [compound 18]	
420 nM	COCCNc1nc(Nc2ccccc2)nc(Nc2ccc(OC)cc2)n1 [Example 808]	
	CSCCCNc1nc(Nc2ccccc2)nc(Nc2ccccc2)n1 (as salt: HCl) [compound 19]	melting point: 162 to 163 °C
550 nM	OCCCNc1nc(Nc2ccccc2)nc(Nc2ccc(F)cc2)n1 [Example 774]	
	Fc1ccc(Nc2nc(NCC3CCCO3)nc(Nc3ccc(F)cc3)n2)cc1 (stereo not drawn) (as salt: HCl) (hydrate or solvate) [compound 36]	melting point: 171 to 174 °C
	[O-][n+]1ccc(CCNc2nc(Nc3ccccc3)nc(Nc3ccccc3)n2)cc1 (as salt: salt) (hydrate or solvate) [Example 740]	melting point: 161 to 162 °C
47 nM	Fc1ccc(Nc2nc(NCc3ccco3)nc(Nc3ccccc3)n2)cc1 [Example 764]	
	CNc1nc(Nc2ccccc2)nc(Nc2ccccc2)n1 [compound 52]	Inhibition ratio (BEC 1 potassium channel): 31%
73 nM	Fc1ccc(Nc2nc(NCc3ccco3)nc(Nc3ccc(F)cc3)n2)cc1 [compound 30]	
	COCCNc1nc(Nc2ccccc2)nc(Nc2ccc(OC)cc2)n1 (as salt: HCl) [Example 808]	melting point: 169 to 170 °C
	CCNc1nc(Nc2ccccc2)nc(Nc2ccccc2)n1 [compound 53]	Inhibition ratio (BEC 1 potassium channel): 59%
84 nM	c1ccc(Nc2nc(NCc3ccncc3)nc(Nc3ccccc3)n2)cc1 [compound 1, N,N′-diphenyl-N″-(4-pyridylmethyl)-1,3,5-triazine-2,4,6-triamine]	
	OCCCNc1nc(Nc2ccccc2)nc(Nc2ccccc2)n1 (as salt: HCl) [compound 21]	melting point: 191 to 192 °C
490 nM	CC(C)Nc1nc(Nc2ccccc2)nc(Nc2ccc(Cl)cc2)n1 [Ex 46]	
350 nM	Fc1ccc(CNc2nc(Nc3ccc(F)cc3)nc(Nc3ccc(F)cc3)n2)cc1 [compound 29]	
260 nM	OCCCCCNc1nc(Nc2ccc(F)cc2)nc(Nc2ccc(F)cc2)n1 [compound 37]	
	c1ccc(Nc2nc(NCC3CCOCC3)nc(Nc3ccccc3)n2)cc1 (as salt: salt) (hydrate or solvate) [Example 741]	melting point: 191 to 193 °C
4900 nM	[O-][n+]1ccc(CCNc2nc(Nc3ccccc3)nc(Nc3ccccc3)n2)cc1 [Example 740]	
	OCCOCCNc1nc(Nc2ccccc2)nc(Nc2ccccc2)n1 (as salt: HCl) [compound 23]	melting point: 167 to 169 °C
	CCCNc1nc(Nc2ccccc2)nc(Nc2ccccc2)n1 [compound 54]	Inhibition ratio (BEC 1 potassium channel): 64%
360 nM	C#CCNc1nc(Nc2ccccc2)nc(Nc2ccccc2)n1 [compound 16]	
490 nM	Fc1ccc(Nc2nc(NCc3cccs3)nc(Nc3ccc(F)cc3)n2)cc1 [compound 31]	
240 nM	COCCNc1nc(Nc2ccc(F)cc2)nc(Nc2ccc(F)cc2)n1 [compound 35]	
480 nM	Fc1ccc(Nc2nc(NCC3CCCO3)nc(Nc3ccc(F)cc3)n2)cc1 (stereo not drawn) [compound 36]	
290 nM	COc1ccc(Nc2nc(Nc3ccccc3)nc(NC(C)C)n2)cc1 [Ex 48]	

IC50 (BEC 1 potassium channel)	Compound	further results
140 nM	OCCCCCNc1nc(Nc2ccccc2)nc(Nc2ccc(F)cc2)n1 [Example 776]	
210 nM	OCCOCCNc1nc(Nc2ccccc2)nc(Nc2ccc(F)cc2)n1 [Example 777]	
180 nM	OCCOCCNc1nc(Nc2ccc(F)cc2)nc(Nc2ccc(F)cc2)n1 [compound 38]	
590 nM	OCCCNc1nc(Nc2ccccc2)nc(Nc2ccccc2)n1 [compound 21]	
390 nM	Fc1ccc(Nc2nc(NCc3ccccc3)nc(Nc3ccc(F)cc3)n2)cc1 [compound 28]	
9500 nM	CONc1nc(Nc2ccccc2)nc(Nc2ccc(F)cc2)n1 [Example 789]	
400 nM	CC(C)Nc1nc(Nc2ccc3c(c2)OCO3)nc(Nc2ccc3c(c2)OCO3)n1 [compound 41]	
110 nM	OCCCCNc1nc(Nc2ccccc2)nc(Nc2ccc(F)cc2)n1 [Example 775]	
	c1ccc(Nc2nc(Nc3ccccc3)nc(NC3CC3)n2)cc1 [compound 62]	Inhibition ratio (BEC 1 potassium channel): 44%
1500 nM	OCCNc1nc(Nc2ccccc2)nc(Nc2ccc(F)cc2)n1 [Example 773]	
1400 nM	Nc1cccc(CNc2nc(Nc3ccccc3)nc(Nc3ccc(F)cc3)n2)n1 [Example 819]	
240 nM	OCCOCCNc1nc(Nc2ccccc2)nc(Nc2ccccc2)n1 [compound 23]	
3100 nM	CCN(CC)CCCC(C)Nc1nc(Nc2ccccc2)nc(Nc2ccc(F)cc2)n1 (stereo not drawn) [Example 794]	
630 nM	COc1cccc(Nc2nc(Nc3cccc(OC)c3)nc(NC(C)C)n2)c1 [compound 40]	
250 nM	COCCNc1nc(Nc2ccccc2)nc(Nc2ccc(F)cc2)n1 [Example 771]	
140 nM	CC(C)Nc1nc(Nc2ccccc2)nc(Nc2ccc(C(F)(F)F)cc2)n1 [Ex 49]	
520 nM	c1ccc(Nc2nc(NCC3CCOCC3)nc(Nc3ccccc3)n2)cc1 [Example 741]	
4700 nM	CCONc1nc(Nc2ccccc2)nc(Nc2ccc(F)cc2)n1 [Example 790]	
720 nM	Cc1ccc(Nc2nc(Nc3ccccc3)nc(NC(C)C)n2)cc1 [Ex 47]	
1300 nM	CSCCCNc1nc(Nc2ccccc2)nc(Nc2ccccc2)n1 [compound 19]	
3600 nM	Nc1cc(CNc2nc(Nc3ccccc3)nc(Nc3ccc(F)cc3)n2)ccn1 [Example 747]	
2200 nM	CN(C)Nc1nc(Nc2ccccc2)nc(Nc2ccc(F)cc2)n1 [Example 791]	
480 nM	O=C1OCCC1CNc1nc(Nc2ccccc2)nc(Nc2ccccc2)n1 (stereo not drawn) [compound 24]	
700 nM	C[C@H](CO)Nc1nc(Nc2ccccc2)nc(Nc2ccc(F)cc2)n1 [Example 779]	
1400 nM	CC(CCCC(C)(C)O)Nc1nc(Nc2ccccc2)nc(Nc2ccccc2)n1 (stereo not drawn) [Example 742]	

Compound	IC50 (BEC 1 potassium channel)	further results
Fc1ccc(Nc2nc(NCc3ccnc(F)c3)nc(Nc3ccc(Cl)cc3)n2)cc1 [Example 797]	650 nM	
Fc1ccc(Nc2nc(NCc3ccnc(F)c3)nc(Nc3ccc(F)cc3)n2)cc1 [Example 743]	100 nM	
N-isopropyl-N′,N″-bis(4-methoxyphenyl)-1,3,5-triazine-1,3,5-triamine hydrochloride [compound 39]	660 nM	
